Results as given in patent US20250326741A1, “GLUCOSE-DEPENDENT INSULINOTROPIC POLYPEPTIDE RECEPTOR ANTAGONISTS AND USES THEREOF” (Pfizer Inc., priority 2024, published 2025).

target: T1, human Glucose-dependent Insulinotropic Polypeptide Receptor (hGIPR) (Homo sapiens, UniProt P48546); experiment: Functional in vitro GIPR antagonist potency assay (intracellular cAMP, HTRF, hGIP stimulation at EC80); format: cell-based; settings: not given
T1 sequence (P48546 22-466): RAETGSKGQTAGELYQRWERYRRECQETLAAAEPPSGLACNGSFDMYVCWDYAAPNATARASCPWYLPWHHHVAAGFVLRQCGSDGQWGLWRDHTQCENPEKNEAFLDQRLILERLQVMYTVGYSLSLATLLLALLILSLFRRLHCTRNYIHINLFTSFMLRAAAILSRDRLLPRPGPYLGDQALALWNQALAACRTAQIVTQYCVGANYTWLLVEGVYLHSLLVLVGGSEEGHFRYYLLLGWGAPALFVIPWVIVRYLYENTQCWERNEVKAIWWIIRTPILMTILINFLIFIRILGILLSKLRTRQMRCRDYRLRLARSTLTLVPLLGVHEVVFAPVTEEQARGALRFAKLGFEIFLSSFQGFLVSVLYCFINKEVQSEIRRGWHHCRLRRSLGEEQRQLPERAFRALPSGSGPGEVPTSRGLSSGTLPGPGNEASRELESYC
Protocol: Example AA. Functional In Vitro GIPR Antagonist Potency Assay
The functional in vitro antagonist potency for test compounds was determined by monitoring intracellular cyclic adenosine monophosphate (cAMP) levels in Chinese hamster ovary (CHO)—K1 cells stably expressing the human Glucose-dependent Insulinotropic Polypeptide Receptor (hGIPR). Following agonist activation, hGIPR associates with the G-protein complex causing the Gas subunit to exchange bound guanosine diphosphate (GDP) for guanosine triphosphate (GTP), followed by dissociation of the Gas-GTP complex. The activated Gas subunit can couple to downstream effectors to regulate the levels of second messengers or cAMP within the cell. Thereby, determination of intracellular cAMP levels allows for pharmacological characterization. Intracellular cAMP levels are quantitated using a homogenous assay utilizing the Homogeneous Time Resolved Fluorescence (HTRF) technology from Perkin Elmer. The method is a competitive immunoassay between native cAMP produced by the cells and cAMP labelled with the acceptor dye, d2. The two entities compete for binding to a monoclonal anti-cAMP antibody labeled with cryptate. The specific signal is inversely proportional to the concentration of cAMP in the cells.
Test compounds were solubilized to a concentration of 30 mM in 100% dimethyl sulfoxide (DMSO). An 11-point dilution series using 1 in 3.162-fold serial dilutions was created in 100% DMSO with a top concentration of 8 mM. The serially diluted compound was spotted with an Echo Acoustic liquid handler (Beckman Coulter) into a 384-well assay plate (Corning, Cat No. 3824) at 50 nL/well with duplicate points at each concentration, at a 200× final assay concentration (FAC). The final compound concentration range in the assay was 40 μM to […], with a final DMSO concentration of 0.5%.
Frozen assay-ready vials (at 1×10^7 cells/vial) of CHO-K1 cells stably expressing the Gs-coupled human GIPR receptor (Eurofins, DiscoverX, Cat No. 95-0146C2) were thawed, counted, and resuspended in assay buffer consisting of Hank's Balanced Salt Solution (HBSS, Lonza Cat No. 10-527) containing 20 mM (4-(2-hydroxyethyl)-1-piperazineethanesulfonic acid (HEPES, Lonza, Cat No. 17-737E), 0.1% bovine serum albumin (BSA, Sigma, Cat No. A7979), and 200 μM 3-isobutyl-1-methylxanthine (IBMX, Sigma, Cat No. 15879) at a density of 4×10^5 cells/mL. Cells were added to assay plate (5 μL/well of 4×10^5 cells/mL stock for 2,000 cells/well final) containing 50 nL of 200×FAC test compound, and incubated at 37° C. (95% O2: 5% CO2) for 2 hours, with micro-clime lids (Labcyte, Cat No. LLS-0310). Following the 2-hour cell and compound incubation, a stimulation mix comprised of hGIPR agonist human glucose-dependent insulinotropic polypeptide (hGIP, full length, Sigma Cat No. G2269) in assay buffer/0.1% DMSO was added to the assay plate (5 μL/well) at an estimated EC80 FAC (based on previous hGIP agonist curves) and incubated for another 30 minutes with micro-clime lids at 37° C. (95% O2: 5% CO2), after which intracellular cAMP levels were quantified as per Perkin Elmer's protocol (5 μL of d2 and then 5 μL cryptate, incubated for 1 hour at room temperature). Emission spectra of samples were measured on a Pherastar plate reader (BMG Labtech Inc) using a HTRF protocol (excitation, 320 nm; emission, 665 nm/620 nm).
(95% O2: 5% CO2), with a micro-clime lid. Following the 2-hour cell and DMSO incubation, a hGIP concentration response curve at 2×FAC (12-point curve using 1 in 3 serial dilutions, with triplicate points at each concentration, 100 nM final top concentration) in assay buffer/1% DMSO was added (5 μL/well) and incubated for a further 30 minutes with a micro-clime lid at 37° C. (95% O2: 5% CO2), after which intracellular cAMP levels were quantified and samples measured as described previously. Experiments passed quality control if the agonist concentration used for stimulation fell between the on-the-day EC50-EC90. […]

Structure (SMILES) | IC50 [nM]
CC(C)c1ccc(NC(=O)N2CCC[C@@H]2C(=O)Nc2ccn(-c3ccc(C(=O)O)cn3)n2)cc1F [Example 3, 6-{3-[(1-{[3-Fluoro-4-(propan-2-yl)phenyl]carbamoyl}-D-prolyl)amino]-1H-pyrazol-1-yl}pyridine-3-carboxylic Acid] | 20

same assay, conditions: geometric mean; CHO-K1 cells stably expressing human GIPR, cAMP after hGIP stimulation at EC80

Structure (SMILES) | IC50 [nM]
Cc1c(C(=O)O)ccc(-n2ccc(NC(=O)[C@H]3CCCN3C(=O)COc3ccc(C(F)(F)F)cc3)n2)c1F [Example 64, 3-fluoro-2-methyl-4-{3-[(1-{[4-(trifluoromethyl)phenoxy]acetyl}-D-prolyl)amino]-1H-pyrazol-1-yl}benzoic acid] | 28
Cc1cc(-n2ccc(NC(=O)[C@H]3CCCN3C(=O)Nc3ccc(C(F)(F)F)cc3)n2)ccc1C(N)=O [Example 49] | 240
Cc1cc(-n2ccc(NC(=O)[C@H]3CCCN3C(=O)Nc3ccc(C(C)C)c(C)c3)n2)ccc1C(=O)O [Example 6, 2-Methyl-4-{3-[(1-{[3-methyl-4-(propan-2-yl)phenyl]carbamoyl}-D-prolyl)amino]-1H-pyrazol-1-yl}benzoic Acid] | 4.1
CC(C)c1ccc(NC(=O)N2CCC[C@@H]2C(=O)Nc2ccn(-c3ccc(C(=O)O)c(F)c3)n2)cc1 [Example 32, 2-fluoro-4-{3-[(1-{[4-(propan-2-yl)phenyl]carbamoyl}-D-prolyl)amino]-1H-pyrazol-1-yl}benzoic acid] | 280
Cc1cc(NC(=O)N2CCC[C@@H]2C(=O)Nc2ccn(-c3ccc(C(=O)O)cc3)n2)ccc1C(F)(F)F [Example 31, 4-{3-[(1-{[3-methyl-4-(trifluoromethyl)phenyl]carbamoyl}-D-prolyl)amino]-1H-pyrazol-1-yl}benzoic acid] | 24
Cc1cc(-n2ccc(NC(=O)[C@H]3CCCN3C(=O)Nc3cc(F)c(C(F)(F)F)c(F)c3)n2)ccc1C(=O)O [Example 51, 4-{3-[(1-{[3,5-difluoro-4-(trifluoromethyl)phenyl]carbamoyl}-D-prolyl)amino]-1H-pyrazol-1-yl}-2-methylbenzoic acid] | 35
Cc1cc(NC(=O)N2CCC[C@@H]2C(=O)Nc2ccn(-c3cc(F)c(O)c(F)c3)n2)ccc1C(C)C [Example 55] | 3.8
Cc1cc(-n2ccc(NC(=O)[C@H]3CCCN3C(=O)Nc3ccc(Cl)c(Cl)c3)n2)ccc1C(=O)O [Example 37, 4-[3-({1-[(3,4-dichlorophenyl)carbamoyl]-D-prolyl}amino)-1H-pyrazol-1-yl]-2-methylbenzoic acid] | 94
O=C(O)c1ccc(-n2ccc(NC(=O)[C@H]3CCCN3C(=O)Nc3ccc(C(F)(F)F)cc3)n2)cc1 [Example 23, 4-{3-[(1-{[4-(trifluoromethyl)phenyl]carbamoyl}-D-prolyl)amino]-1H-pyrazol-1-yl}benzoic acid] | 43
O=C(O)c1ccc(-n2ccc(NC(=O)[C@H]3CCCN3C(=O)NCc3ccc(OC(F)(F)F)cc3)n2)cc1 [Example 33, 4-(3-{[1-{{[4-(trifluoromethoxy)phenyl]methyl}carbamoyl)-D-prolyl]amino}-1H-pyrazol-1-yl)benzoic acid] | 90
Cc1cc(-n2ccc(NC(=O)[C@H]3CCCN3C(=O)Nc3ccc(C(C)C)cc3)n2)c(F)cc1C(=O)O [Example 50, 5-fluoro-2-methyl-4-{3-[(1-{[4-(propan-2-yl)phenyl]carbamoyl}-D-prolyl)amino]-1H-pyrazol-1-yl}benzoic acid] | 21
Cc1cc(NC(=O)N2CCC[C@@H]2C(=O)Nc2ccn(-c3ccc(C(=O)O)cc3)n2)ccc1C(C)C [Example 26, 4-{3-[(1-{[3-methyl-4-(propan-2-yl)phenyl]carbamoyl}-D-prolyl)amino]-1H-pyrazol-1-yl}benzoic acid] | 64
